Experiments:
[1] = molecular target: T1, endogenous kinases and other proteins enriched by Kinobeads from mixed lysates of K-562, COLO-205, MV-4-11, SK-N-BE(2) and OVCAR-8 (Homo sapiens, UniProt P06239); assay: Kinobeads competition binding profiling, two doses (100 nM and 1 µM);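 note: inhibitor preincubated 45 min at 4 °C in cell lysate, then bead pulldown. Bound protein quantified by label-free mass spectrometry relative to DMSO vehicle control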
T1 construct: endogenous in cells

[2] = molecular target: T2, endogenous kinases and other proteins enriched by Kinobeads from mixed lysates of K-562, COLO-205, MV-4-11, SK-N-BE(2) and OVCAR-8 (Homo sapiens, UniProt P12931); assay: as above
T2 construct: to maximize the representation of endogenous proteins; endogenous in cells

[3] = molecular target: T3, endogenous kinases and other proteins enriched by Kinobeads from mixed lysates of K-562, COLO-205, MV-4-11, SK-N-BE(2) and OVCAR-8 (Homo sapiens, UniProt P23458); assay: as above
T3 construct: to maximize the representation of endogenous proteins; endogenous in cells

GSK3A = molecular target: T4, GSK3A (Homo sapiens, UniProt P49840); assay: Kinobeads full dose-response competition binding: GSK3A; details: Gene Name GSK3A; for Relative Intensity 0.3nM: 0.3nM compound; for Relative Intensity 0.3nM / Relative Intensity 1nM / Relative Intensity 3nM / Relative Intensity 10nM / Relative Intensity 30nM / Relative Intensity 100nM / Relative Intensity 300nM / Relative Intensity 1000nM: DMSO = 1; for Relative Intensity 1nM: 1nM compound; for Relative Intensity 3nM: 3nM compound; for Relative Intensity 10nM: 10nM compound; for Relative Intensity 30nM: 30nM compound; for Relative Intensity 100nM: 100nM compound; for Relative Intensity 300nM: 300nM compound; for Relative Intensity 1000nM: 1000nM compound; for Kd: EC50 with Correction, read-out: apparent Kd; for Kd / EC50: doses in nM; for EC50: eight-dose curve fit
T4 construct: endogenous in cells

LATS1 = molecular target: T5, LATS1 (Homo sapiens, UniProt O95835); assay: Kinobeads full dose-response competition binding: LATS1; details: Gene Name LATS1; for Relative Intensity 0.3nM: 0.3nM compound; for Relative Intensity 0.3nM / Relative Intensity 1nM / Relative Intensity 3nM / Relative Intensity 10nM / Relative Intensity 30nM / Relative Intensity 100nM / Relative Intensity 300nM / Relative Intensity 1000nM: DMSO = 1; for Relative Intensity 1nM: 1nM compound; for Relative Intensity 3nM: 3nM compound; for Relative Intensity 10nM: 10nM compound; for Relative Intensity 30nM: 30nM compound; for Relative Intensity 100nM: 100nM compound; for Relative Intensity 300nM: 300nM compound; for Relative Intensity 1000nM: 1000nM compound; for Kd: EC50 with Correction, read-out: apparent Kd; for Kd / EC50: doses in nM; for EC50: eight-dose curve fit
T5 construct: endogenous in cells
T5 sequence (O95835 1-1130): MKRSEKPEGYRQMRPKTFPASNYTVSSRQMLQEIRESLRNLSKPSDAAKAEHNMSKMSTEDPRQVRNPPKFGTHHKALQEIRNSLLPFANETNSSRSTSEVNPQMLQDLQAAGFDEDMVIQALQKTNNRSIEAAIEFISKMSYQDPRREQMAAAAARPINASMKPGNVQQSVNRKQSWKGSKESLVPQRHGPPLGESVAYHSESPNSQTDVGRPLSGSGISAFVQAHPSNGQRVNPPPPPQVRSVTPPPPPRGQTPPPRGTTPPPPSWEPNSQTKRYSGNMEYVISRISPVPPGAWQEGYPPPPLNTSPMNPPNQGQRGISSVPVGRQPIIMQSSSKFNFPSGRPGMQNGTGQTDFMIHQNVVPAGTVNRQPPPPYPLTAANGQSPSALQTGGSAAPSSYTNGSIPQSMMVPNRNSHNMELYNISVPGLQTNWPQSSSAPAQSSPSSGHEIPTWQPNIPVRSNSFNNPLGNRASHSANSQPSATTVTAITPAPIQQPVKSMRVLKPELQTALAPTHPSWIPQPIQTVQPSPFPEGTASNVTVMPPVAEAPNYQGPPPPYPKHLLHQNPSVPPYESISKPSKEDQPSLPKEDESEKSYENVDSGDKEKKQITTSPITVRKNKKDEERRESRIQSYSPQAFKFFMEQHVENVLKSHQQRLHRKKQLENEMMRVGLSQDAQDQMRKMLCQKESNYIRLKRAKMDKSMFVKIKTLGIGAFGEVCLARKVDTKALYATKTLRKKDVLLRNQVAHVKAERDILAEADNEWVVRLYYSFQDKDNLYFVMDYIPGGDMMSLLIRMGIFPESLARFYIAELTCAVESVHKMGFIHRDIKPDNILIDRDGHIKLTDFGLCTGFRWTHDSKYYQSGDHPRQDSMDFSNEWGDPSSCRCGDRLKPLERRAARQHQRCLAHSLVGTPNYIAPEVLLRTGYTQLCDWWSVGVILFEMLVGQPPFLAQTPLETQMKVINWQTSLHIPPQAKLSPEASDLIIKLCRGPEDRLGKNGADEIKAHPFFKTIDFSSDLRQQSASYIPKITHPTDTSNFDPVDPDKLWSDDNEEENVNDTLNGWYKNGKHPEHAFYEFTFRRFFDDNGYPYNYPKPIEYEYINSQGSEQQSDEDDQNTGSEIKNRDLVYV

PKN2 = molecular target: T6, PKN2 (Homo sapiens, UniProt Q16513); assay: Kinobeads full dose-response competition binding: PKN2; details: Gene Name PKN2
T6 construct: a mixture of lysates from five cancer cell lines; endogenous in cells
T6 sequence (Q16513 whole entry): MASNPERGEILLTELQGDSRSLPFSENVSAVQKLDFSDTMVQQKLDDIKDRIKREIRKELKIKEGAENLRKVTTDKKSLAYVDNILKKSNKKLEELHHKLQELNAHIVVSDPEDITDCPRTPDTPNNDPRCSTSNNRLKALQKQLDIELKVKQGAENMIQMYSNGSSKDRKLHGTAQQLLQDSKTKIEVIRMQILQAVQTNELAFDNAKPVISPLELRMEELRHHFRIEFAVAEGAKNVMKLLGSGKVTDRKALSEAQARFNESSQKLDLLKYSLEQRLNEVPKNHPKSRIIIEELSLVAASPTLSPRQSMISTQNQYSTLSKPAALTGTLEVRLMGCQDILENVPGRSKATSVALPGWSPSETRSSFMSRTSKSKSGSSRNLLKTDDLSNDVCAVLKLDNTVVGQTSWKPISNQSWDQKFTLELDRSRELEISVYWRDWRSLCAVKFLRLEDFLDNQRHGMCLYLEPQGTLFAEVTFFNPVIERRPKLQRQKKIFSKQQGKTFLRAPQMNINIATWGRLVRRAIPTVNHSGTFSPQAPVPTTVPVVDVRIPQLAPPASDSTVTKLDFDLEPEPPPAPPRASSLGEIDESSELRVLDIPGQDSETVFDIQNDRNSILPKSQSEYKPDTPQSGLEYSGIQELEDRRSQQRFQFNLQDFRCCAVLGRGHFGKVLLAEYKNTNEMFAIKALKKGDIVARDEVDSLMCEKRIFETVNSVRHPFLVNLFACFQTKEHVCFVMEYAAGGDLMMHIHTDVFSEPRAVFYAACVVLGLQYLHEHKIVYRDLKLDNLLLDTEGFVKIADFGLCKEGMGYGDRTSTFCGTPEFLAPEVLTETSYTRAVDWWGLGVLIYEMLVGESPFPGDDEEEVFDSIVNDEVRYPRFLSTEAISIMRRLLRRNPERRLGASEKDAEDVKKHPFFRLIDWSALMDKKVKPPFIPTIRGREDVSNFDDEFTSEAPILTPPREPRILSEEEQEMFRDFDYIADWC

T4 sequence (P49840 whole entry): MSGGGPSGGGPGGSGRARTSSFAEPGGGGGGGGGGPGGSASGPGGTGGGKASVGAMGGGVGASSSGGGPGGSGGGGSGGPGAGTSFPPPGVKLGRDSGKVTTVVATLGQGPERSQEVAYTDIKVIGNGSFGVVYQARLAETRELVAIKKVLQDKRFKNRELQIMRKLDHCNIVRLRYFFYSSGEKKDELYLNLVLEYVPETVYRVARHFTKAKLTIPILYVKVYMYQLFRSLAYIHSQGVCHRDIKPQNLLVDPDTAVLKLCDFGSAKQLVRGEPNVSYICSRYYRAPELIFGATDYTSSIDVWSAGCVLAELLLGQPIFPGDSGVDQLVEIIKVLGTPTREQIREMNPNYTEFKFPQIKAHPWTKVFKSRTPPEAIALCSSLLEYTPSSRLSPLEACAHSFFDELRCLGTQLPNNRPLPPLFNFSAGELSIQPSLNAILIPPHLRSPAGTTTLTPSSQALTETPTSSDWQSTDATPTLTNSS
T3 sequence (P23458 whole entry): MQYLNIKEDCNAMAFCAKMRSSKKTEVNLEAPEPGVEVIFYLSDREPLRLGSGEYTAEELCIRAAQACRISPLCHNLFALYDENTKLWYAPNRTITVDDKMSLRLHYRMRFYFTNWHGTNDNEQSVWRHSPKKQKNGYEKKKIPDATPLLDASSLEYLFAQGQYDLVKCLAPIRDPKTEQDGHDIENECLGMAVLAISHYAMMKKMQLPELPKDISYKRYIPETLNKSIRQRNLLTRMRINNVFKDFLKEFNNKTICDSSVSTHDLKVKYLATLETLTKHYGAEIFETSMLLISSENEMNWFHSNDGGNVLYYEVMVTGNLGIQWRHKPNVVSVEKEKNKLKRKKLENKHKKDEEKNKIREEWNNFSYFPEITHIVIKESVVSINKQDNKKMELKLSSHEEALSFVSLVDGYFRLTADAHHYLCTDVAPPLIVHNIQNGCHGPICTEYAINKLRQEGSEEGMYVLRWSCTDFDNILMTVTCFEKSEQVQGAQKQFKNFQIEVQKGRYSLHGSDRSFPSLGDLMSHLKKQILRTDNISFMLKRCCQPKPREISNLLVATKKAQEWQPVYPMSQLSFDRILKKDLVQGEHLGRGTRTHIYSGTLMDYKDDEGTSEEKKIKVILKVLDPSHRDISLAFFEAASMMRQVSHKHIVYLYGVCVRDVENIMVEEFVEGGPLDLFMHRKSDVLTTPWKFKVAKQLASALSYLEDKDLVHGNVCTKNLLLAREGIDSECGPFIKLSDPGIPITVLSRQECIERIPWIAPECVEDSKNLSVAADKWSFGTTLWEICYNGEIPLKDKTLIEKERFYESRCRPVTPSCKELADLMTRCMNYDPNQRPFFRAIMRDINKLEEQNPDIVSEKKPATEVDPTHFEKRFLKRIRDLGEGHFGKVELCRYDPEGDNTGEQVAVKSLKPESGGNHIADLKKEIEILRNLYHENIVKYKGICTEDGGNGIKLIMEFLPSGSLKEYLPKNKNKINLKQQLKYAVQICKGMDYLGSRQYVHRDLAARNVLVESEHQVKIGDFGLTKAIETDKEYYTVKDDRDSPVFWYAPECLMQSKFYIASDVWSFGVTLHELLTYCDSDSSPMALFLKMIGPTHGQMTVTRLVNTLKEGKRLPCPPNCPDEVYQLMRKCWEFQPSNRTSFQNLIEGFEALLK
T1 sequence (P06239 whole entry): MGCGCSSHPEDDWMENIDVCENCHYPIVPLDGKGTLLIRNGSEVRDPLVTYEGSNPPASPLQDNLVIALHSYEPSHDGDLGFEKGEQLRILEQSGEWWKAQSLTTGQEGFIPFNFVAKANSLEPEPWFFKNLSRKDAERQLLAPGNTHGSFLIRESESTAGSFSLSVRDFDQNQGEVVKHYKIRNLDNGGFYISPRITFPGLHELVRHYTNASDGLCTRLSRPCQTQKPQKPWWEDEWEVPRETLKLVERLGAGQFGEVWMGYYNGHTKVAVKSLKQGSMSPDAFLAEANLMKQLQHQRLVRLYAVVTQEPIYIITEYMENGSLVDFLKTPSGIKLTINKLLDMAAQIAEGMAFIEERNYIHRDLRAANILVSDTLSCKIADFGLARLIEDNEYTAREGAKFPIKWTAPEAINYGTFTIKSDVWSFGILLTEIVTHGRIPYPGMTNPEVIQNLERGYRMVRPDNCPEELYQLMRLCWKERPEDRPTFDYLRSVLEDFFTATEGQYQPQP
T2 sequence (P12931 whole entry): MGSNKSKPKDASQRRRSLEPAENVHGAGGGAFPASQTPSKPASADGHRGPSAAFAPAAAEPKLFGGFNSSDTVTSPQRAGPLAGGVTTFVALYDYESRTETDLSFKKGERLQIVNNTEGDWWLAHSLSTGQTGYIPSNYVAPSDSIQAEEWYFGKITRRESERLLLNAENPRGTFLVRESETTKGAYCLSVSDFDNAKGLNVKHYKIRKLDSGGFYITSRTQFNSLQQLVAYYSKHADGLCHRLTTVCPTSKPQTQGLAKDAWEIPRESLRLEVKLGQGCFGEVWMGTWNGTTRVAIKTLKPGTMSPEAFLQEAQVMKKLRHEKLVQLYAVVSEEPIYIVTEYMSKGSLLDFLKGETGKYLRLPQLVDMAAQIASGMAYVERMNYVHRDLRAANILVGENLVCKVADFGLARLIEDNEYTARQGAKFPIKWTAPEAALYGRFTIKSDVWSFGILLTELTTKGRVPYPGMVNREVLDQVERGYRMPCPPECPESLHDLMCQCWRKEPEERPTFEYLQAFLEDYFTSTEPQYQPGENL

Row | SMILES | Relative Intensity 0.3nM (GSK3A) | Relative Intensity 1nM (GSK3A) | Relative Intensity 3nM (GSK3A) | Relative Intensity 10nM (GSK3A) | Relative Intensity 30nM (GSK3A) | Relative Intensity 100nM (GSK3A) | Relative Intensity 300nM (GSK3A) | Relative Intensity 1000nM (GSK3A) | Kd (GSK3A) [nM] | EC50 (GSK3A) [nM] | Relative Intensity 0.3nM (LATS1) | Relative Intensity 1nM (LATS1) | Relative Intensity 3nM (LATS1) | Relative Intensity 10nM (LATS1) | Relative Intensity 30nM (LATS1) | Relative Intensity 100nM (LATS1) | Relative Intensity 300nM (LATS1) | Relative Intensity 1000nM (LATS1) | Kd (LATS1) [nM] | EC50 (LATS1) [nM] | also measured
1 | COc1cc(Nc2ncc3c(C)nc(-c4cc5ccccc5[nH]4)n3n2)cc(OC)c1OC [GW869516X] | – | – | – | – | – | – | – | – | – | – | – | – | – | – | – | – | – | – | – | – | Kinobeads Data ([1]; LCK): no target; Kinobeads Data ([2]; SRC): no target; Kinobeads Data ([3]; JAK1(JH2domain-pseudokinase)): no target
2 | CCn1c(-c2nonc2N)nc2c(C#CC(C)(C)O)nc(OCCN)cc21 [GSK902056A] | 0.9894 | 1.046 | 1.057 | 0.9554 | 0.7994 | 0.6557 | 0.3972 | 0.1852 | 164 | 173 | 0.9708 | 1.022 | 1.017 | 1.027 | 0.7859 | 0.4584 | 0.1984 | 0.02738 | 87.4 | 87.4 | Relative Intensity 0.3nM (PKN2; 0.3nM compound, DMSO = 1): 0.9769; Relative Intensity 1nM (PKN2; 1nM compound, DMSO = 1): 1.016; Relative Intensity 3nM (PKN2; 3nM compound, DMSO = 1): 1.0433; Relative Intensity 10nM (PKN2; 10nM compound, DMSO = 1): 1.014; Relative Intensity 30nM (PKN2; 30nM compound, DMSO = 1): 0.9503; Relative Intensity 100nM (PKN2; 100nM compound, DMSO = 1): 0.8449; Relative Intensity 300nM (PKN2; 300nM compound, DMSO = 1): 0.6334; Relative Intensity 1000nM (PKN2; 1000nM compound, DMSO = 1): 0.3485; Kd (PKN2; EC50 with Correction, doses in nM, read-out: apparent Kd): 401 nM; EC50 (PKN2; eight-dose curve fit, doses in nM): 401 nM
3 | C[C@]12O[C@H](C[C@]1(O)CO)n1c3ccccc3c3c4c(c5c6ccccc6n2c5c31)CNC4=O [Lestaurtinib] | – | – | – | – | – | – | – | – | – | – | – | – | – | – | – | – | – | – | – | – | potency estimated from few doses ([1]; read-out: Lestaurtinib Drugmatrix value (apparent Kd), Gene Name LCK, target LCK, each column = one Lestaurtinib control run_replicate): 550 nM; potency estimated from few doses ([2]; read-out: Lestaurtinib Drugmatrix value, Gene Name SRC): 618 nM; potency estimated from few doses ([3]; read-out: Lestaurtinib Drugmatrix value (apparent Kd), Gene Name JAK1, target JAK1, each column = one Lestaurtinib control run_replicate): 881 nM
4 | CCn1c(-c2nonc2N)nc2c(C#CC(C)(C)O)nc(OCCNC)cc21 [GSK949675A] | 1.008 | 1.091 | 1.095 | 0.9753 | 1.009 | 0.7508 | 0.4472 | 0.237 | 104 | 167 | 1.0287 | 1.07 | 1.096 | 1.105 | 1.087 | 0.897 | 0.6219 | 0.3635 | 238 | 238 | –

From article PMC11062922 (Nature Chemical Biology, 2023)
